Assay results published in patent US12077786B2, “Methods of cell selection and modifying cell metabolism” (LONZA LTD, priority 2018, dated 2024).

Experiments:
[1] = tested on: cell pools constructed using the P5CS/eGFP vector (GSKO cells); test: P5CS/eGFP cell pools grown without proline with P5CS inhibitor, 96 deep well plates; assay type: cell-based, Chinese hamster; conditions: with increase in inhibitor concentration; media lacking proline; 24-216 hours
Experimental: FIGS. 8A-8F are a series of diagrams showing cell pools generated using P5CS overexpression and cultured in the absence of proline, and in the presence of L-azetidine-2-carboxylic acid, a P5CS inhibitor. L-azetidine-2-carboxylic acid was added at a variety of different concentrations and cells were cultured in 96 deep well plates for 9 days. These cells were analyzed for cell growth, as measured by viable cell concentration (FIG. 8A) and culture viability (FIG. 8B). Cells were also analyzed for mean culture fluorescence (FIG. 8C) and percentage of cells exceeding the predetermined thresholds of 10^2 (FIG. 8D) and 10^3 (FIG. 8E).
FIGS. 9A-9F are a series of diagrams showing cell pools generated using P5CS overexpression and cultured in the absence of proline, and in the presence of 3,4-dehydro-L-proline, a P5CS inhibitor. 3,4-dehydro-L-proline was added at a variety of different concentrations and cells were cultured in 96 deep well plates for 9 days. These cells were analyzed for cell growth, as measured by viable cell concentration (FIG. 9A) and culture viability (FIG. 9B). Cells were also analyzed for mean culture fluorescence (FIG. 9C) and percentage of cells exceeding the predetermined thresholds of 10^2 (FIG. 9D) and 10^3 (FIG. 9E).
FIGS. 10A-10F are a series of diagrams showing cell pools generated using P5CS overexpression and cultured in the absence of proline, and in the presence of L-4-thiazolidinecarboxylic acid, a P5CS inhibitor. L-4-thiazolidinecarboxylic acid was added at a variety of different concentrations and cells were cultured in 96 deep well plates for 9 days. These cells were analyzed for cell growth, as measured by viable cell concentration (FIG. 10A) and culture viability (FIG. 10B). Cells were also analyzed for mean culture fluorescence (FIG. 10C) and percentage of cells exceeding the predetermined thresholds of 10^2 (FIG. 10D) and 10^3 (FIG. 10E).
In order to assess the capacity of the proline/P5CS system to generate recombinant cell pools, vectors comprising the P5CS gene and a gene of interest were transfected into cells and subsequently cultured in the absence of proline in an attempt to generate recombinant cell pools. Briefly, 1×10^7 Lonza's GSKO cells were electroporated with 20 μg plasmid which was first linearized using PvuI restriction enzyme (NEB) and purified using sodium acetate and ethanol precipitation. The construct used contained both the P5CS gene for evaluation as a selection marker and eGFP as a reporter gene. Transfections were carried out in CM76 medium in the absence of proline but supplemented with L-glutamine to achieve a final concentration of 6 mM. The cells were then cultured in 25 ml of this medium in a T75 flask for 10 days before being transferred to 10 ml suspension culture, also in proline absent medium. The resulting pool was analyzed using flow cytometry. Cell samples were first centrifuged at 1,000 rpm for 5 minutes and resuspended in 500 μl PBS. Samples were then loaded onto the probe of a FACScalibur™ (BD biosciences) and fluorescence intensity was measured in relation to the cell count. The forward scatter (FSC) was measure using the E-1 amplifier and side scatter (SSC) set to 465 whilst FL1 recorded cells at 473; all settings were converted to Log scales. In order to facilitate the adherence of suspension cells, coverslips were first submerged in poly-L-lysine and incubated for 15 minutes at room temperature. Coverslips were then removed and left to dry in a sterile environment before transferring to a 24 well plate. Cells were cultured at 37° C. overnight to facilitate adhering of cells to the coverslip before aspirating the medium and adding 250 μl of 4% paraformaldehyde in PBS and incubating for 20 minutes at 37° C. to fix cells. Subsequently two 1 ml PBS washes were carried out before 250 μl 0.1% triton X100 in PBS was added and incubated for 5 minutes at room temperature to permeablize cells. […]

[2] = tested on: cell pools constructed using the P5CS/eGFP vector (GSKO cells); test: P5CS/eGFP cell pools grown without proline with P5CS inhibitor, static 24 well plates; assay type: cell-based, Chinese hamster; conditions: with increase in inhibitor concentration; media lacking proline; 24-216 hours
Experimental: FIGS. 11A-11E are a series of diagrams showing analysis of cell pools generated using P5CS overexpression and cultured in the absence of proline, and in the presence of L-azetidine-2-carboxylic acid, a P5CS inhibitor. L-azetidine-2-carboxylic acid was added at a variety of different concentrations and cells were cultured in static 24 well plates for 9 days. These cells were analyzed for cell growth, as measured by viable cell concentration (FIG. 11A) and culture viability (FIG. 11B). Cells were also analyzed for mean culture fluorescence (FIG. 11C) and percentage of cells exceeding the predetermined thresholds of 10^2 (FIG. 11D) and 10^3 (FIG. 11E).
FIGS. 12A-12E are a series of diagrams showing analysis of cell pools generated using P5CS overexpression and cultured in the absence of proline, and in the presence of 3,4-dehydro-L-proline, a P5CS inhibitor. 3,4-dehydro-L-proline was added at a variety of different concentrations and cells were cultured in static 24 well plates for 9 days. These cells were analyzed for cell growth, as measured by viable cell concentration (FIG. 12A) and culture viability (FIG. 12B). Cells were also analyzed for mean culture fluorescence (FIG. 12C) and percentage of cells exceeding the predetermined thresholds of 10^2 (FIG. 12D) and 10^3 (FIG. 12E). […]

| SMILES | cell growth (viable cell number) [1] | mean fluorescence (eGFP) [1] | cell growth (viable cell number) [2] | mean fluorescence (eGFP) [2] |
| --- | --- | --- | --- | --- |
| O=C(O)[C@@H]1CSCN1 [L-4-thiazolidinecarboxylic acid] | slower cell growth | higher mean fluorescence | – | – |
| O=C(O)[C@@H]1CCN1 [L-azetidine-2-carboxylic acid] | slower cell growth | higher mean fluorescence | slower cell growth | higher mean fluorescence |
| O=C(O)[C@@H]1C=CCN1 [3,4-dehydro-L-proline] | slower cell growth | higher mean fluorescence | – | – |
